Measured values taken from PMC5187867, “Crystal Structure of a Putative Cytochrome P450 Alkane Hydroxylase (CYP153D17) from Sphingomonas sp. PAMC 26605 and Its Conformational Substrate Binding” (International Journal of Molecular Sciences, 2016).

Target: CYP153D17 (Sphingomonas sp. PAMC 26605, UniProt A0ACD6BAR9)
Experiment: UV-Vis spectral binding titration (substrate binding assay) of purified CYP153D17
Details: 1 μM CYP153D17; for Kd: apparent dissociation constant from titration curves (A390-A420); for Spin Shift (%): shift in heme spin state from low-spin (Soret maximum at 420 nm) to high-spin (390 nm)
Protocol: To determine the binding affinity of CYP153D17, spectral binding titrations were performed with the alkanes (decane and dodecane) and fatty acids (capric acid, lauric acid, and myristic acid). All tested substrates changed the spectrum of CYP153D17, with a shift of the Soret band at 420 to 390 nm, which is typical of the high-spin form (Figure 2), after which the apparent dissociation constants from the titration curves (Kd values) were obtained (Table 1). Dodecane, capric acid, and lauric acid binding to CYP153D17 induced a ≥90% shift in the heme spin state from low-spin (Soret maximum at 420 nm) to high-spin (Soret maximum at 390 nm), whereas decane and myristic acid induced a ≥80% shift in the same heme spin state.
To determine whether CYP153D17 can bind alkanes and fatty acids, a UV-Vis (Ultraviolet-Visible) spectral binding titration assay was performed. Binding of the substrate to CYP153D17 induced a shift of the Soret band of the CYP absorption spectrum from A420 to A390 [30]. Alkanes (decane and dodecane) and fatty acids (capric acid, lauric acid, and myristic acid) were dissolved in ethanol to prepare stock solutions of different concentrations (0.4–5 mM) for each substrate. Binding of substrate to CYP153D17 was carried out by the consecutive addition of 1-μL aliquots from the stock solutions to 1 mL of 1 μM CYP153D17 solution, and the UV–Vis spectra of the mixture were recorded. To calculate Kd, the difference between adsorption at A390 and A420 was calculated, corrected with the A390-to-A420 value at 0 M substrate, and plotted against the substrate concentrations. The data were fitted to equations as described by Funhoff et al..

Sequence of CYP153D17 (A0ACD6BAR9 1-407): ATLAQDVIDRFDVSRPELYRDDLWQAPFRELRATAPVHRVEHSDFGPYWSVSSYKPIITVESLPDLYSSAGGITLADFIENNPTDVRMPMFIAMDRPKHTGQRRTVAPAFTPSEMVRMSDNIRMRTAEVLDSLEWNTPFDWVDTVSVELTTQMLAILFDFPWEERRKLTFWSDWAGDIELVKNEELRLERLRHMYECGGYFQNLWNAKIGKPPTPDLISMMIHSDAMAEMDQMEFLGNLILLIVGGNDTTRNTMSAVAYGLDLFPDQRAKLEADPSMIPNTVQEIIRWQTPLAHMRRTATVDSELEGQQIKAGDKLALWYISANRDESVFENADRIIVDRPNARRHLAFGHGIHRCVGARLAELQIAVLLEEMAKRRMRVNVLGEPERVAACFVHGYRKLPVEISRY

SMILES	Kd [nM]	Spin Shift (%)	Spin Shift (%) (listed as decane)	Spin Shift (%) (listed as lauric acid)	Spin Shift (%) (listed as capric acid)	Spin Shift (%) (listed as myristic acid)
CCCCCCCCCC [Decane, decane]	590 ± 690	≥80	≥ 80			
CCCCCCCCCCCC [Dodecane, dodecane]	420 ± 140					
CCCCCCCCCCCC(=O)O [Lauric acid, lauric acid]	490 ± 700	≥90		≥ 90		
CCCCCCCCCC(=O)O [Capric acid, capric acid]	460 ± 410	≥90			≥ 90	
CCCCCCCCCCCCCC(=O)O [Myristic acid, myristic acid]	540 ± 330	≥80				≥ 80
